Laboratory results taken from patent US20060142279A1 (priority 2004, published 2006).
Where two headings read alike, the source gives them in different places.

Experiments:
[1] = test system: dormant M. bovis BCG, expressing the luciferase gene on plasmid pSMT1; assay type: cell-based, Mycobacterium bovis; conditions: 7 days of anaerobiosis, then 5 days in drug free medium
[2] = test system: dormant Mycobacterium bovis BCG; assay type: cell-based
[3] = test system: dormant Mycobacterium tuberculosis (H37RV); assay: Wayne dormancy model, CFU assay; conditions: for reduction of the dormant bacteria (CFU compared to untreated control): drug added after 14 days, cultures collected after 22 days

COc1nc2ccc(Br)cc2cc1C(c1ccccc1)C(O)(CCN(C)C)c1ccccc1 (stereo not drawn)
melting point: 84 °C

COc1nc2ccc(Br)cc2cc1[C@@H](c1ccccc1)[C@@](O)(CCN(C)C)c1cccc2ccccc12 [Compound 12, (αS, βR)-6-bromo-α-[2-(dimethylamino)ethyl]-2-methoxy-α-1-naphthalenyl-β-phenyl-3-quinolineethanol]
killing of dormant bacteria as compared to untreated control (Luciferase counts, RLU) ([1]; 0.1 μg/ml): about 0.5 log10
killing of dormant bacteria as compared to untreated control (Luciferase counts, RLU) ([1]; 1 μg/ml): ~2 log10
reduction in bacterial survival as compared to untreated control (Luciferase counts, RLU) ([1]; 10 μg/ml): approximately 4 log10
reduction in CFU counts compared with untreated control ([2]; 0.1 μg/ml, day 2 after anaerobiosis): ~0.5 log10
reduction in CFU counts compared with untreated control ([2]; 0.1 μg/ml, day 5 after anaerobiosis): ~1.1 log10
reduction in CFU counts compared with untreated control ([2]; 1 μg/ml, day 2 after anaerobiosis): ~2.3 log10
reduction in CFU counts compared with untreated control ([2]; 1 μg/ml, day 5 after anaerobiosis): ~4.7 log10
reduction in CFU counts compared with untreated control ([2]; 10 μg/ml, day 2 after anaerobiosis): approximately 4 log10
reduction in CFU counts compared with untreated control ([2]; 10 μg/ml, day 5 after anaerobiosis): about 6 log10
reduction of the dormant bacteria (CFU compared to untreated control) ([3]; 1 μg/ml): 1.41 log10

COc1nc2ccc(Br)cc2cc1C(c1ccc(C)cc1)C(O)(CCN(C)C)c1cccc2ccccc12 (stereo not drawn) [Compound 71]
reduction of the dormant bacteria (CFU compared to untreated control) ([3]; 1 μg/ml): 1.55 log10
reduction of the dormant bacteria (CFU compared to untreated control) ([3]; 10 μg/ml): more than 2 log10

COc1nc2ccc(Br)cc2cc1C(c1ccccc1)C(O)(CCN(C)C)c1ccc2c(c1)OCO2 (stereo not drawn) [Compound 75]
reduction of the dormant bacteria (CFU compared to untreated control) ([3]; 1 μg/ml): 0.87 log10
reduction of the dormant bacteria (CFU compared to untreated control) ([3]; 10 μg/ml): 1.14 log10

COc1nc2ccc(Br)cc2cc1C(c1ccccc1)C(O)(CCn1cncn1)c1cccc2ccccc12 (stereo not drawn) [Compound 172]
reduction of the dormant bacteria (CFU compared to untreated control) ([3]; 1 μg/ml): 0.29 log10
reduction of the dormant bacteria (CFU compared to untreated control) ([3]; 10 μg/ml): 0.98 log10

NNC(=O)c1ccncc1 [Isoniazid, reference compound]
effect on dormant bacteria (Luciferase counts), in words ([1]; 10 μg/ml): no effect
effect on dormant bacteria, in words ([3]; 10 μg/ml): did not have any effect

Cc1ncc([N+](=O)[O-])n1CCO [metronidazole, reference compound]
reduction in bacterial survival as compared to untreated control (Luciferase counts, RLU) ([1]; 10 μg/ml): 2 log10
effect on dormant bacteria, in words ([3]; 100 μg/ml, added at start): good efficacy
